Assay results published in patent publication US20110009381A1, “SOLUBILIZED THIAZOLOPYRIDINES” (Sirtis Pharmaceuticals, Inc., priority 2007, published 2011).

Target: T1, SIRT1 (Homo sapiens, UniProt Q96EB6)
T1 sequence (Q96EB6 1-747): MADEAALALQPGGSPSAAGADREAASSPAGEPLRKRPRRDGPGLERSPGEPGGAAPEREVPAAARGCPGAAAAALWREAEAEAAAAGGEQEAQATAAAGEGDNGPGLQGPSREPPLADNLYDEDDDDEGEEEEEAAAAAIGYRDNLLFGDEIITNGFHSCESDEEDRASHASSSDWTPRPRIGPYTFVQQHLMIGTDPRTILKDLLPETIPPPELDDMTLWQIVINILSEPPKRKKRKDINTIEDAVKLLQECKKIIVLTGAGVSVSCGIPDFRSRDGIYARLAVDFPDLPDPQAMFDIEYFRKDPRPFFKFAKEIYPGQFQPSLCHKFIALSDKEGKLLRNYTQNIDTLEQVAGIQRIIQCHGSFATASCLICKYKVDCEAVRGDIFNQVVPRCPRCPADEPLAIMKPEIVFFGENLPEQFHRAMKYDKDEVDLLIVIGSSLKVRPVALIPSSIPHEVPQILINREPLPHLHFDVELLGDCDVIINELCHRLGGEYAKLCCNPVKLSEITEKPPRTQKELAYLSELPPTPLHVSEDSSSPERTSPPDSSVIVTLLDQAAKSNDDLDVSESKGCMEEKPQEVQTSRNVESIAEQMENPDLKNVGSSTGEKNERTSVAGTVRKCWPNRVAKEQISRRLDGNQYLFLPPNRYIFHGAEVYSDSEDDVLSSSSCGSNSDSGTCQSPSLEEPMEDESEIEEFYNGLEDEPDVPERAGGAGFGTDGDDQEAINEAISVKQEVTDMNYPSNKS
Test: Mass spectrometry based assay to identify modulators of SIRT1 activity (deacetylation of p53-based acetylated peptide substrate)
Assay type: biochemical
Settings: 10 nM SIRT1, 0.5 μM peptide substrate, 120 μM βNAD+, 25 minutes at 25° C.; for EC1.5: SIRT1 activation
In short: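 Activation measured on His-tagged SIRT1 (10 nM, E. coli-expressed) deacetylating a 0.5 μM p53-derived acetyl-peptide with 120 μM βNAD^+ for 25 min at 25 °C, pH 8 Tris-acetate. After formic acid stop, mass spectrometry quantified acetylated versus deacetylated peptide, referenced to DMSO and nicotinamide controls. Reported as EC1.5 and maximum fold activation.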

FOLD ACT. (percent maximum fold activation) | EC1.5 | Structure (SMILES)
A (Fold activation≧300%) | A (EC1.5≧250 nM and ≦1 uM) | CN(C)CCOc1cc(C(=O)Nc2ccccc2-c2nc3cccnc3s2)nc(-c2ccccc2)n1 [Compound 94]
A (Fold activation≧300%) | A′ (EC1.5<250 nM) | O=C(Nc1ccccc1-c1nc2cccnc2s1)c1cc(N[C@@H]2CCCNC2)nc(-c2ccccc2)n1 [Compound 95]
A (Fold activation≧300%) | A (EC1.5≧250 nM and ≦1 uM) | CC1(C)OCC(CNc2cc(C(=O)Nc3ccccc3-c3nc4cccnc4s3)nc(-c3ccccc3)n2)O1 (centres unmarked) [Compound 96]
B (Fold Activation≧150% and <300%) | C (EC1.5>10 uM) | CC1(C)OC[C@H](COc2cc(C(=O)Nc3ccccc3-c3nc4cccnc4s3)nc(-c3ccccc3)n2)O1 [Compound 97]
A (Fold activation≧300%) | A′ (EC1.5<250 nM) | CN1CCC(Nc2cc(C(=O)Nc3ccccc3-c3nc4cccnc4s3)nc(-c3ccccc3)n2)CC1 [Compound 99]
A (Fold activation≧300%) | A′ (EC1.5<250 nM) | CCN1CCC(Nc2cc(C(=O)Nc3ccccc3-c3nc4cccnc4s3)nc(-c3ccccc3)n2)CC1 [Compound 100]
A (Fold activation≧300%) | A′ (EC1.5<250 nM) | CCCN1CCC(Nc2cc(C(=O)Nc3ccccc3-c3nc4cccnc4s3)nc(-c3ccccc3)n2)CC1 [Compound 101]
B (Fold Activation≧150% and <300%) | A (EC1.5≧250 nM and ≦1 uM) | O=C(Nc1ccccc1-c1nc2cccnc2s1)c1cc(OCCCO)nc(-c2ccccc2)n1 [Compound 102]
B (Fold Activation≧150% and <300%) | C (EC1.5>10 uM) | O=C(Nc1ccccc1-c1nc2cccnc2s1)c1cc(OCCCCO)nc(-c2ccccc2)n1 [Compound 103]
A (Fold activation≧300%) | A′ (EC1.5<250 nM) | O=C(Nc1ccccc1-c1nc2cccnc2s1)c1cc(NC2CCNC2)nc(-c2ccccc2)n1 (centres unmarked) [Compound 104]
A (Fold activation≧300%) | A′ (EC1.5<250 nM) | O=C(Nc1ccccc1-c1nc2cccnc2s1)c1cc(NC[C@H](O)CO)nc(-c2ccccc2)n1 [Compound 105]
A (Fold activation≧300%) | A′ (EC1.5<250 nM) | O=C(Nc1ccccc1-c1nc2cccnc2s1)c1cc(NC[C@@H](O)CO)nc(-c2ccccc2)n1 [Compound 106]
B (Fold Activation≧150% and <300%) | A (EC1.5≧250 nM and ≦1 uM) | O=C(Nc1ccccc1-c1nc2cccnc2s1)c1cc(OC[C@H](O)CO)nc(-c2ccccc2)n1 [Compound 107]
B (Fold Activation≧150% and <300%) | A′ (EC1.5<250 nM) | O=C(Nc1ccccc1-c1nc2cccnc2s1)c1cc(OC[C@@H](O)CO)nc(-c2ccccc2)n1 [Compound 108]
A (Fold activation≧300%) | A′ (EC1.5<250 nM) | O=C(Nc1ccccc1-c1nc2cccnc2s1)c1cc(NCC2CCCNC2)nc(-c2ccccc2)n1 (centres unmarked) [Compound 109]
A (Fold activation≧300%) | A′ (EC1.5<250 nM) | CN(C)CCNc1cc(C(=O)Nc2ccccc2-c2nc3cccnc3s2)nc(-c2ccccc2)c1 [Compound 110]
A (Fold activation≧300%) | A′ (EC1.5<250 nM) | Cc1ccc(-c2nc(NCCN(C)C)cc(C(=O)Nc3ccccc3-c3nc4cccnc4s3)n2)cc1 [Compound 111]
A (Fold activation≧300%) | A′ (EC1.5<250 nM) | Cc1cccc(-c2nc(NCCN(C)C)cc(C(=O)Nc3ccccc3-c3nc4cccnc4s3)n2)c1 [Compound 112]
B (Fold Activation≧150% and <300%) | A (EC1.5≧250 nM and ≦1 uM) | O=C(Nc1ccccc1-c1nc2cccnc2s1)c1cc(NC2CCN(Cc3ccccc3)CC2)nc(-c2ccccc2)n1 [Compound 113]
A (Fold activation≧300%) | A′ (EC1.5<250 nM) | CC(C)N1CCC(Nc2cc(C(=O)Nc3ccccc3-c3nc4cccnc4s3)nc(-c3ccccc3)n2)CC1 [Compound 114]

FOLD ACT. (percent maximum fold activation) | EC1.5 | Structure (SMILES)
C (Fold Activation<150%) | C (EC1.5>10 uM) | O=C(Nc1ccccc1-c1nc2cccnc2s1)c1cc(NC2CCN(c3ccccn3)CC2)nc(-c2ccccc2)n1 [Compound 115]
A (Fold activation≧300%) | A′ (EC1.5<250 nM) | CC(=O)N1CCC(Nc2cc(C(=O)Nc3ccccc3-c3nc4cccnc4s3)nc(-c3ccccc3)n2)CC1 [Compound 116]
A (Fold activation≧300%) | A′ (EC1.5<250 nM) | CC(C)C(=O)N1CCC(Nc2cc(C(=O)Nc3ccccc3-c3nc4cccnc4s3)nc(-c3ccccc3)n2)CC1 [Compound 117]
A (Fold activation≧300%) | A′ (EC1.5<250 nM) | O=C(Nc1ccccc1-c1nc2cccnc2s1)c1cc(NC2CCN(C3CC3)CC2)nc(-c2ccccc2)n1 [Compound 118]
A (Fold activation≧300%) | A′ (EC1.5<250 nM) | O=C(Nc1ccccc1-c1nc2cccnc2s1)c1cc(N2CCNCC2)cc(-c2ccccc2)n1 [Compound 119]
A (Fold activation≧300%) | A (EC1.5≧250 nM and ≦1 uM) | O=C(Nc1ccccc1-c1nc2cccnc2s1)c1cc(N2CCN3CCC[C@H]3C2)nc(-c2ccccc2)n1 [Compound 120]
A (Fold activation≧300%) | A′ (EC1.5<250 nM) | CNCCNc1cc(C(=O)Nc2ccccc2-c2nc3cccnc3s2)nc(-c2ccccc2)n1 [Compound 121]
B (Fold Activation≧150% and <300%) | A (EC1.5≧250 nM and ≦1 uM) | CS(=O)(=O)NCCOc1cc(C(=O)Nc2ccccc2-c2nc3cccnc3s2)nc(-c2ccccc2)n1 [Compound 122]
A (Fold activation≧300%) | A′ (EC1.5<250 nM) | CC(C)N1CCN(c2cc(C(=O)Nc3ccccc3-c3nc4cccnc4s3)nc(-c3ccccc3)c2)CC1 [Compound 123]
A (Fold activation≧300%) | A′ (EC1.5<250 nM) | COCCN1CCN(c2cc(C(=O)Nc3ccccc3-c3nc4cccnc4s3)nc(-c3ccccc3)c2)CC1 [Compound 124]
A (Fold activation≧300%) | A′ (EC1.5<250 nM) | CC(C)(C)N1CCC(Nc2cc(C(=O)Nc3ccccc3-c3nc4cccnc4s3)nc(-c3ccccc3)n2)CC1 [Compound 125]
A (Fold activation≧300%) | A′ (EC1.5<250 nM) | O=C(Nc1ccccc1-c1nc2cccnc2s1)c1cc(OC[C@H](O)CO)cc(-c2ccccc2)n1 [Compound 126]
A (Fold activation≧300%) | A (EC1.5≧250 nM and ≦1 uM) | O=C(Nc1ccccc1-c1nc2cccnc2s1)c1cc(OC[C@@H](O)CO)cc(-c2ccccc2)n1 [Compound 127]
A (Fold activation≧300%) | A′ (EC1.5<250 nM) | O=C(Nc1ccccc1-c1nc2cccnc2s1)c1cc(NC(CO)CO)cc(-c2ccccc2)n1 [Compound 128]
A (Fold activation≧300%) | A′ (EC1.5<250 nM) | O=C(Nc1ccccc1-c1nc2cccnc2s1)c1cc(N2CCOCC2)cc(-c2ccccc2)n1 [Compound 129]
A (Fold activation≧300%) | A′ (EC1.5<250 nM) | COCCN(CCOC)c1cc(C(=O)Nc2ccccc2-c2nc3cccnc3s2)nc(-c2ccccc2)c1 [Compound 130]
A (Fold activation≧300%) | A′ (EC1.5<250 nM) | COCCNc1cc(C(=O)Nc2ccccc2-c2nc3cccnc3s2)nc(-c2ccccc2)c1 [Compound 131]
A (Fold activation≧300%) | A′ (EC1.5<250 nM) | Cc1cccc(-c2nc(NCCN3CCCCC3)cc(C(=O)Nc3ccccc3-c3nc4cccnc4s3)n2)c1 [Compound 132]
A (Fold activation≧300%) | A′ (EC1.5<250 nM) | Cc1cccc(-c2nc(NCCN3CCOCC3)cc(C(=O)Nc3ccccc3-c3nc4cccnc4s3)n2)c1 [Compound 133]
A (Fold activation≧300%) | A′ (EC1.5<250 nM) | Cc1cccc(-c2nc(NC(CO)CO)cc(C(=O)Nc3ccccc3-c3nc4cccnc4s3)n2)c1 [Compound 134]
